{"source": "patent EP0912534B1", "about": "“MUSCARINIC ANTAGONISTS” (SCHERING CORPORATION, priority 1996, dated 1998)", "key": {"[1]": {"molecular_target": "T1, cloned human m2 muscarinic receptor (Homo sapiens, UniProt P08172)", "T1 sequence (P08172 1-466)": "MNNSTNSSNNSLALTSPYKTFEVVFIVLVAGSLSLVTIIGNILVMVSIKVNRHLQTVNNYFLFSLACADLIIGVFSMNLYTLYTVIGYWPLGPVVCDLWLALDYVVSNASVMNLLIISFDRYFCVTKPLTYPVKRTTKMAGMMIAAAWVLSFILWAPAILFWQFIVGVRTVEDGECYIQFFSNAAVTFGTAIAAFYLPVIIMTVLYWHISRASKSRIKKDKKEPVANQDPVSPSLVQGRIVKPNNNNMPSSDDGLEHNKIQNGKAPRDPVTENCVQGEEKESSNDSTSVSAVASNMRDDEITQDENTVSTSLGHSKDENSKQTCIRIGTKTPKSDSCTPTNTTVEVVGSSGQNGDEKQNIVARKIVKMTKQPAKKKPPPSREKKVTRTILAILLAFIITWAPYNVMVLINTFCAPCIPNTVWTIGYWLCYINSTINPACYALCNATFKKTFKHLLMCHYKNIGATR", "assay": "Muscarinic binding activity (3H-QNB displacement), m2", "details": "Ki m2, membranes of transfected CHO cells"}, "[2]": {"molecular_target": "T2, cloned human m4 muscarinic receptor (Homo sapiens, UniProt P08173)", "T2 sequence (P08173 1-479)": "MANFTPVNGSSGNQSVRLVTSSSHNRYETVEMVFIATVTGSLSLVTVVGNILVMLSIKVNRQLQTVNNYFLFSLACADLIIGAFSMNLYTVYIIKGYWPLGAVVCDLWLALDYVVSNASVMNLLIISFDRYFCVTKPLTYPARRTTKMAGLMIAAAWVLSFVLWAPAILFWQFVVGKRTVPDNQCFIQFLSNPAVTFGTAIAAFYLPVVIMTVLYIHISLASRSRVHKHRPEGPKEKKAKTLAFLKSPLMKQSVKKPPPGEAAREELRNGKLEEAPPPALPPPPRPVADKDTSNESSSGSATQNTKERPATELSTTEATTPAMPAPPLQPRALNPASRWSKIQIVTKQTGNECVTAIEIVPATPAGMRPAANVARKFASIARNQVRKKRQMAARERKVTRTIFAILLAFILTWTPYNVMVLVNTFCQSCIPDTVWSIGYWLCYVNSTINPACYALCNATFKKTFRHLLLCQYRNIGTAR", "assay": "Muscarinic binding activity (3H-QNB displacement), m4", "details": "Ki m4, membranes of transfected CHO cells"}, "[3]": {"molecular_target": "T3, cloned human m1 muscarinic receptor (Homo sapiens, UniProt P11229)", "T3 sequence (P11229 1-460)": "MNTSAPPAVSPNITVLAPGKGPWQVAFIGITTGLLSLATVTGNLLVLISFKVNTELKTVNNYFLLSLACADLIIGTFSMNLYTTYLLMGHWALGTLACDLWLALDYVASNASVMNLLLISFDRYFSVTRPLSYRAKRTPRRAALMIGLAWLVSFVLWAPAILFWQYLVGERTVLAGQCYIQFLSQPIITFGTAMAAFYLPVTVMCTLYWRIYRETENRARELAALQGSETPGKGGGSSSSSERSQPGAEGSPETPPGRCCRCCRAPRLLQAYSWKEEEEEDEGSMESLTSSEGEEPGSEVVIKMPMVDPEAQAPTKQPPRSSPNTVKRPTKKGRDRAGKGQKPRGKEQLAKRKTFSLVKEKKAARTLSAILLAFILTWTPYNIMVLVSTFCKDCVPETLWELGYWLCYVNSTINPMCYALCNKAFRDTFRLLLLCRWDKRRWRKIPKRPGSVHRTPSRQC", "assay": "Muscarinic binding activity (3H-QNB displacement), m1", "details": "Ki m1, membranes of transfected CHO cells"}, "[4]": {"tested_on": "Release of Acetyl Choline (ACh) from Striatum", "assay": "Microdialysis: release of acetylcholine from striatum of conscious rats", "assay_type": "in vivo, male Sprague-Dawley Rats", "details": "10 mg/kg peritoneal, 3 rats, Isomer B", "protocol": "The skull was exposed and drilled through to the dura at a point 0.2 mm anterior and 3.0 mm lateral to the bregma. At these coordinates, a guide cannula was positioned at the outer edge of the dura through the drilled opening, lowered perpendicularly to a depth of 2.5 mm, and permanently secured with dental cement to bone screws. Following the surgery, rats were given ampicillin (40 mg/kg, ip) and individually housed in modified cages. A recovery period of approximately 3 to 7 days was allowed before the microdialysis procedure was undertaken. • Microdialysis: All of the equipment and instrumentation used to conduct in vivo microdialysis was obtained from Bioanalytical Systems, Inc. (BAS). The microdialysis procedure required the insertion through the guide cannula of a thin, needle-like perfusable probe (CMA/12.3 mm x 0.5 mm) to a depth of 3 mm in striatum beyond the end of the guide. The probe was connected beforehand with tubing to a microinjection pump (CMA-/100). Rats were collared and tethered, and, following probe insertion, were placed in a large clear plexiglass bowl with litter material and access to food and water. The probe was perfused at 2 µl/min with Ringer's buffer (NaCl 147 mM; KCI 3.0 mM; CaCl2 1.2 mM; MgCl2 1.0 mM) containing 5.5 mM glucose, 0.2 mM L-ascorbate, and 1 µM neostigmine bromide at pH 7.4. To achieve stable baseline readings, microdialysis was allowed to proceed for 90 minutes prior to the collection of fractions. Fractions (20 µl) were obtained at 10-minute intervals over a 3-hour period using a refrigerated collector (CMA/170 or 200). Following the collection of four to five baseline fractions, the drug or combination of drugs to be tested was administered to the animal. Once collection was complete, each rat was autopsied to determine how accurately the probe was placed. • Acetylcholine (ACh) analysis: The concentration of ACh in collected samples of microdialysate was determined using HPLC/electrochemical detection. Samples were auto-injected (Waters 712 Refrigerated Sample Processor) onto a polymeric analytical HPLC column (BAS, MF-6150) and eluted with 50 mM Na2HPO4, pH 8.5. To prevent bacterial growth, Kathon CG reagent (0.005%) (BAS) was included in the mobile phase. Eluate from the analytical column, containing separated ACh and choline, was then immediately passed through an immobilized enzyme reactor cartridge (BAS, MF-6151) coupled to the column outlet. The reactor contained both acetylcholinesterase and choline oxidase covalently bound to a polymeric backbone. […] Data acquisition was carried out using an IBM Model 70 computer equipped with a microchannel IEEE board. Integration and quantification of peaks were accomplished using \"Maxima\" chromatography software (Waters Corporation). Total run time per sample was 11 minutes at a flow rate of 1 ml/min. Retention times for acetylcholine and choline were 6.5 and 7.8 minutes respectively. To monitor and correct for possible changes in detector sensitivity during chromatography, ACh standards were included at the beginning, middle and end of each sample queue.\nIncreases in ACh levels are consistent with presynaptic m2 receptor antagonism."}}, "note": "pKi: −log10 of the molar value.", "data": [{"smiles": "COc1ccc(S(=O)(=O)c2ccc3c(c2)CCC3N2CCN(C3CCCCC3)C[C@H]2C)cc1", "note": "(single isomer, unassigned) [Compound 15]", "values": [{"measurement": "pKi", "setting": "[1]", "result": 9.96}, {"measurement": "pKi", "setting": "[2]", "result": 9.57}, {"measurement": "pKi", "setting": "[3]", "result": 8.91}, {"measurement": "Mean % of baseline", "setting": "[4]; sample collection time 20 min (control, first baseline, before injection)", "result": "98.61 % of baseline"}, {"measurement": "Mean % of baseline", "setting": "[4]; sample collection time 30 min (control, second baseline, before injection)", "result": "93.87 % of baseline"}, {"measurement": "Mean % of baseline", "setting": "[4]; sample collection time 40 min (control, third baseline, before injection)", "result": "102.42 % of baseline"}, {"measurement": "Mean % of baseline", "setting": "[4]; sample collection time 50 min (compounds injected at 50 minutes)", "result": "103.86 % of baseline"}, {"measurement": "Mean % of baseline", "setting": "[4]; sample collection time 60 min, injected at 50 min", "result": "102.14 % of baseline"}, {"measurement": "Mean % of baseline", "setting": "[4]; sample collection time 70 min, injected at 50 min", "result": "175.31 % of baseline"}, {"measurement": "Mean % of baseline", "setting": "[4]; sample collection time 80 min, injected at 50 min", "result": "278.67 % of baseline"}, {"measurement": "Mean % of baseline", "setting": "[4]; sample collection time 90 min, injected at 50 min", "result": "266.94 % of baseline"}, {"measurement": "Mean % of baseline", "setting": "[4]; sample collection time 100 min, injected at 50 min", "result": "245.19 % of baseline"}, {"measurement": "Mean % of baseline", "setting": "[4]; sample collection time 110 min, injected at 50 min", "result": "217.34 % of baseline"}, {"measurement": "Mean % of baseline", "setting": "[4]; sample collection time 120 min, injected at 50 min", "result": "222.39 % of baseline"}, {"measurement": "Mean % of baseline", "setting": "[4]; sample collection time 130 min, injected at 50 min", "result": "205.69 % of baseline"}, {"measurement": "Mean % of baseline", "setting": "[4]; sample collection time 140 min, injected at 50 min", "result": "188.49 % of baseline"}, {"measurement": "Mean % of baseline", "setting": "[4]; sample collection time 150 min, injected at 50 min", "result": "189.79 % of baseline"}, {"measurement": "Mean % of baseline", "setting": "[4]; sample collection time 160 min, injected at 50 min", "result": "184.27 % of baseline"}, {"measurement": "Mean % of baseline", "setting": "[4]; sample collection time 170 min, injected at 50 min", "result": "189.27 % of baseline"}, {"measurement": "Mean % of baseline", "setting": "[4]; sample collection time 180 min, injected at 50 min", "result": "189.86 % of baseline"}]}]}
